Assay results taken from patent US20230089867A1, “CYCLIC PENTAMER COMPOUNDS AS PROPROTEIN CONVERTASE SUBTILISIN/KEXIN TYPE 9 (PCSK9) INHIBITORS FOR THE TREATMENT OF METABOLIC DISORDER” (Novartis AG, priority 2018, published 2023).

Molecular target: human PCSK9 (Homo sapiens, UniProt Q8NBP7)
Assay: PCSK9 ligand binding TR-FRET assay (interference with binding of human PCSK9 to human LDLR)
Settings: for Max % inhibition: PCSK9 FRET assay, efficacy (Amax), 100% = 1 uM unlabeled human PCSK9, 0% = DMSO; for IC50: TR-FRET, human PCSK9 Alexa Fluor 647 / human LDLR extracellular domain-Europium Kryptate, read-out: PCSK9 FRET Assay IC50
Method in brief: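 Threefold compound dilutions were pre-incubated 30 min with PCSK9, after which 4 nM Europium Kryptate-tagged human LDLR ectodomain was added for a further 2 h.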

Sequence of human PCSK9 (Q8NBP7 153-692): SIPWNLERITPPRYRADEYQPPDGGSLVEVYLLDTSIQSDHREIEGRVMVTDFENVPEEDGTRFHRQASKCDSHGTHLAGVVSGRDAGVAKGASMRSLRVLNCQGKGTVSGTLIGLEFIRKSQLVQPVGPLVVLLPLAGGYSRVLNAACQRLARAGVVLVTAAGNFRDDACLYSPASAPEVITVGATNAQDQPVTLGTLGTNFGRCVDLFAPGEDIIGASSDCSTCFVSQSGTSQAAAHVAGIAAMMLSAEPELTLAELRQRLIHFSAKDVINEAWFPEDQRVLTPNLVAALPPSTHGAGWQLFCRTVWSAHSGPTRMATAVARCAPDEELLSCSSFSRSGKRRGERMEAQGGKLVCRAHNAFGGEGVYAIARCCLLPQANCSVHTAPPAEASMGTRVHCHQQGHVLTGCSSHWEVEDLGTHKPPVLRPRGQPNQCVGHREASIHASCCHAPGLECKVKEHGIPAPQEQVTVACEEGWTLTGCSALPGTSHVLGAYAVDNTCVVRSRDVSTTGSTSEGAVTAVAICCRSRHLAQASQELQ
Sequence of human PCSK9 (Q8NBP7 31-152 partner limits assumed): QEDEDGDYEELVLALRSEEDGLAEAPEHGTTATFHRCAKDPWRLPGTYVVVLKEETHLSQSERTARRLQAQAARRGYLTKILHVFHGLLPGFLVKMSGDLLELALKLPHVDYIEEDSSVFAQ

Row | SMILES | Max % inhibition [%] | IC50 [nM]
1 | COC[C@@H]1NC(=O)[C@H](C)N(Cc2ccc(Cl)cc2Oc2ccc(-c3cnc(CN(C)C)n3C)cc2)C(=O)C[C@@H](Cn2cccn2)C(=O)N(C)[C@H]2CCCC[C@@H]2NC(=O)C[C@H](Cc2ccc(Cl)cc2)N(C)C1=O [Compound 253, (4S,7S,10S,16aS,20aS)-14-((1H-pyrazol-1-yl)methyl)-11-(4-chloro-2-(4-(2-((dimethylamino)methyl)-1-methyl-1H-imidazol-5-yl)phenoxy)benzyl)-4-(4-chlorobenzyl)-7-(methoxymethyl)-5,10,16-trimethylhexadecahydrobenzo[l][1,4,7,11,14]pentaazacyclooctadecine-2,6,9,12,15(3H)-pentaone] | 98.40 | 1.5
2 | COC[C@@H]1NC(=O)[C@H](C)N(Cc2ccc(Cl)cc2Oc2ccc(-c3cnc(CN(C)C)n3C)cc2)C(=O)C[C@@H](CC#N)C(=O)N(C)[C@H]2CCCC[C@@H]2NC(=O)C[C@H](Cc2ccc(Cl)cc2)N(C)C1=O [Compound 89, 2-((4S,7S,10S,14R,16aS,20aS)-11-(4-chloro-2-(4-(2-((dimethylamino)methyl)-1-methyl-1H-imidazol-5-yl)phenoxy)benzyl)-4-(4-chlorobenzyl)-7-(methoxymethyl)-5,10,16-trimethyl-2,6,9,12,15-pentaoxodocosahydrobenzo[l][1,4,7,11,14]pentaazacyclooctadecin-14-yl)acetonitrile] | 85.89 | 1.6
3 | COC[C@@H]1NC(=O)[C@H](C)N(Cc2ccc(Cl)cc2Oc2cc(F)c(-c3cnc(CN4CCCC4)n3C)c(F)c2)C(=O)C[C@@H](Cc2ccccc2)C(=O)N(C)[C@@H](C)CNC(=O)C[C@H](Cc2ccc(Cl)cc2)N(C)C1=O [Compound 51, (2S,5S,8S,13S,16R)-16-benzyl-1-(4-chloro-2-(3,5-difluoro-4-(1-methyl-2-(pyrrolidin-1-ylmethyl)-1H-imidazol-5-yl)phenoxy)benzyl)-8-(4-chlorobenzyl)-5-(methoxymethyl)-2,7,13,14-tetramethyl-1,4,7,11,14-pentaazacyclooctadecane-3,6,10,15,18-pentaone] | 94.86 | 0.5
4 | COC[C@@H]1NC(=O)[C@H](C)N(Cc2ccc(Cl)cc2Oc2ccc(-c3cnc4n3CCN(C(C)C)C4)cc2)C(=O)C[C@@H](Cc2ccccc2)C(=O)N(C)[C@@H](C)CNC(=O)C[C@H](Cc2ccc(Cl)cc2)N(C)C1=O.O=C(O)C(F)(F)F [Compound 123, (2S,5S,8S,13S,16R)-16-benzyl-1-(4-chloro-2-(4-(7-isopropyl-5,6,7,8-tetrahydroimidazo[1,2-a]pyrazin-3-yl)phenoxy)benzyl)-8-(4-chlorobenzyl)-5-(methoxymethyl)-2,7,13,14-tetramethyl-1,4,7,11,14-pentaazacyclooctadecane-3,6,10,15,18-pentaone trifluoroacetate] | 74.19 | 3.4
5 | CCc1ccc(CN2C(=O)C[C@@H](Cc3ccccc3)C(=O)N(C)[C@H]3CCCC[C@@H]3NC(=O)C[C@H](Cc3ccc(Cl)cc3)N(C)C(=O)[C@H](COC)NC(=O)[C@@H]2C)c(Oc2ccc(-c3cnc(CN4CC5(COC5)C4)n3C)cc2)c1 [Compound 23, (4S,7S,10S,14R,16aS,20aS)-11-(2-(4-(2-(2-oxa-6-azaspiro[3.3]heptan-6-ylmethyl)-1-methyl-1H-imidazol-5-yl)phenoxy)-4-ethylbenzyl)-14-benzyl-4-(4-chlorobenzyl)-7-(methoxymethyl)-5,10,16-trimethylhexadecahydrobenzo[l][1,4,7,11,14]pentaazacyclooctadecine-2,6,9,12,15(3H)-pentaone] | 96.76 | 2.2
6 | COC[C@@H]1NC(=O)[C@H](C)N(Cc2ccc(Cl)cc2Oc2ccc(-c3cnc(CN(C)C)n3C)cc2)C(=O)C[C@@H](Cc2ccc(F)c(F)c2F)C(=O)N(C)[C@@H](C)[C@H](C)NC(=O)C[C@H](Cc2ccc(Cl)cc2)N(C)C1=O [Compound 293, (2S,5S,8S,12S,13S,16R)-1-(4-chloro-2-(4-(2-((dimethylamino)methyl)-1-methyl-1H-imidazol-5-yl)phenoxy)benzyl)-8-(4-chlorobenzyl)-5-(methoxymethyl)-2,7,12,13,14-pentamethyl-16-(2,3,4-trifluorobenzyl)-1,4,7,11,14-pentaazacyclooctadecane-3,6,10,15,18-pentaone] | 103.68 | 0.7

More lines, now with the values ahead:

Row | Max % inhibition [%] | IC50 [nM] | SMILES
7 | 58.33 | 9.4 | COC[C@@H]1NC(=O)[C@H](C)N(Cc2ccc(Cl)cc2Oc2ccc(-c3cncc(C4CN(C)CCN4C)c3)cc2)C(=O)C[C@@H](Cc2ccccc2)C(=O)N(C)[C@@H](C)CNC(=O)C[C@H](Cc2ccc(Cl)cc2)N(C)C1=O (stereo partly drawn) [Compound 135, (2S,5S,8S,13S,16R)-16-benzyl-1-(4-chloro-2-(4-(5-(1,4-dimethylpiperazin-2-yl)pyridin-3-yl)phenoxy)benzyl)-8-(4-chlorobenzyl)-5-(methoxymethyl)-2,7,13,14-tetramethyl-1,4,7,11,14-pentaazacyclooctadecane-3,6,10,15,18-pentaone]
8 | 102.49 | 1.3 | C[C@H]1CNC(=O)C[C@H](Cc2ccc(Cl)cc2)N(C)C(=O)[C@H](COC(F)F)NC(=O)[C@H](C)N(Cc2ccc(Cl)cc2Oc2ccc(-c3cnc(CN(C)C)n3C)cc2)C(=O)C[C@@H](Cc2ccccc2)C(=O)N1C [Compound 170, (2S,5S,8S,13S,16R)-16-benzyl-1-(4-chloro-2-(4-(2-((dimethylamino)methyl)-1-methyl-1H-imidazol-5-yl)phenoxy)benzyl)-8-(4-chlorobenzyl)-5-((difluoromethoxy)methyl)-2,7,13,14-tetramethyl-1,4,7,11,14-pentaazacyclooctadecane-3,6,10,15,18-pentaone]
9 | 92.63 | 189 | COC[C@@H]1NC(=O)[C@H](C)N(Cc2ccc(Cl)cc2Oc2ccc(-c3cnc(CN(C)C)n3C)cc2)C(=O)C[C@@H](Cc2ccccc2)C(=O)N(C)CC(C)(C)NC(=O)C[C@H](Cc2ccc(Cl)cc2)N(C)C1=O [Compound 65, (2S,5S,8S,16R)-16-benzyl-1-(4-chloro-2-(4-(2-((dimethylamino)methyl)-1-methyl-1H-imidazol-5-yl)phenoxy)benzyl)-8-(4-chlorobenzyl)-5-(methoxymethyl)-2,7,12,12,14-pentamethyl-1,4,7,11,14-pentaazacyclooctadecane-3,6,10,15,18-pentaone]
10 | 93.92 | 8.4 | COC[C@@H]1NC(=O)C(C)N(Cc2ccc(F)cc2Oc2ccc(-c3cnc(CN(C)C)n3C)cc2)C(=O)C[C@@H](Cc2ccccc2)C(=O)N(C)[C@H]2CCCC[C@@H]2NC(=O)C[C@H](Cc2ccc(Cl)cc2)N(C)C1=O (stereo partly drawn) [Compound 228, (4S,7S,14R,16aS,20aS)-14-benzyl-4-(4-chlorobenzyl)-11-(2-(4-(2-((dimethylamino)methyl)-1-methyl-1H-imidazol-5-yl)phenoxy)-4-fluorobenzyl)-7-(methoxymethyl)-5,10,16-trimethylhexadecahydrobenzo[l][1,4,7,11,14]pentaazacyclooctadecine-2,6,9,12,15(3H)-pentaone]
11 | 52.60 | 2.9 | COC[C@@H]1NC(=O)[C@H](C)N(Cc2ccc(Cl)cc2Oc2ccc(-c3cnc(CN4CCCC4)n3CCF)cc2)C(=O)C[C@@H](Cc2ccccc2)C(=O)N(C)[C@@H](C)CNC(=O)C[C@H](Cc2ccc(Cl)cc2)N(C)C1=O [Compound 303, (2S,5S,8S,13S,16R)-16-benzyl-1-(4-chloro-2-(4-(1-(2-fluoroethyl)-2-(pyrrolidin-1-ylmethyl)-1H-imidazol-5-yl)phenoxy)benzyl)-8-(4-chlorobenzyl)-5-(methoxymethyl)-2,7,13,14-tetramethyl-1,4,7,11,14-pentaazacyclooctadecane-3,6,10,15,18-pentaone]
12 | 102.40 | 1.1 | COC[C@@H]1NC(=O)[C@H](C)N(Cc2ccc(Cl)cc2Oc2ccc(-c3cnc(CN(C)C)n3C)cc2)C(=O)C[C@@H](Cc2ccccc2)C(=O)N(C)[C@H]2CCCC[C@@H]2NC(=O)C[C@H](Cc2ccc(Cl)cc2)N(C)C1=O [Compound 145, (4S,7S,10S,14R,16aS,20aS)-14-benzyl-11-(4-chloro-2-(4-(2-((dimethylamino)methyl)-1-methyl-1H-imidazol-5-yl)phenoxy)benzyl)-4-(4-chlorobenzyl)-7-(methoxymethyl)-5,10,16-trimethylhexadecahydrobenzo[l][1,4,7,11,14]pentaazacyclooctadecine-2,6,9,12,15(3H)-pentaone]
13 | 98.09 | 74.1 | COC[C@@H]1NC(=O)[C@@H](C)N(Cc2ccc(Cl)cc2Oc2ccc(-c3cnc(CN(C)C)n3C)cc2)C(=O)C[C@@H](Cc2ccccc2)C(=O)N(C)[C@@H](C)CNC(=O)C[C@H](Cc2ccc(Cl)cc2)N(C)C1=O [Compound 12, (2R,5S,8S,13S,16R)-16-benzyl-1-(4-chloro-2-(4-(2-((dimethylamino)methyl)-1-methyl-1H-imidazol-5-yl)phenoxy)benzyl)-8-(4-chlorobenzyl)-5-(methoxymethyl)-2,7,13,14-tetramethyl-1,4,7,11,14-pentaazacyclooctadecane-3,6,10,15,18-pentaone]
14 | 103.76 | 0.6 | COC[C@@H]1NC(=O)[C@H](C)N(Cc2ccc(OC(F)F)cc2Oc2ccc(-c3cnc(CN(C)C)n3C)cc2)C(=O)C[C@@H](Cc2ccccc2)C(=O)N(C)[C@@H](C)CNC(=O)C[C@H](Cc2ccc(Cl)cc2)N(C)C1=O [Compound 179, (2S,5S,8S,13S,16R)-16-benzyl-8-(4-chlorobenzyl)-1-(4-(difluoromethoxy)-2-(4-(2-((dimethylamino)methyl)-1-methyl-1H-imidazol-5-yl)phenoxy)benzyl)-5-(methoxymethyl)-2,7,13,14-tetramethyl-1,4,7,11,14-pentaazacyclooctadecane-3,6,10,15,18-pentaone]
